From patent US10399974B2, “N2-phenyl-pyrido[3,4-D]pyrimidine-2, 8-diamine derivatives and their use as Mps1 inhibitors” (Cancer Research Technology Limited, priority 2014, dated 2019) come the findings set out here.

Sequence of full length MPS1 (P33981 whole entry): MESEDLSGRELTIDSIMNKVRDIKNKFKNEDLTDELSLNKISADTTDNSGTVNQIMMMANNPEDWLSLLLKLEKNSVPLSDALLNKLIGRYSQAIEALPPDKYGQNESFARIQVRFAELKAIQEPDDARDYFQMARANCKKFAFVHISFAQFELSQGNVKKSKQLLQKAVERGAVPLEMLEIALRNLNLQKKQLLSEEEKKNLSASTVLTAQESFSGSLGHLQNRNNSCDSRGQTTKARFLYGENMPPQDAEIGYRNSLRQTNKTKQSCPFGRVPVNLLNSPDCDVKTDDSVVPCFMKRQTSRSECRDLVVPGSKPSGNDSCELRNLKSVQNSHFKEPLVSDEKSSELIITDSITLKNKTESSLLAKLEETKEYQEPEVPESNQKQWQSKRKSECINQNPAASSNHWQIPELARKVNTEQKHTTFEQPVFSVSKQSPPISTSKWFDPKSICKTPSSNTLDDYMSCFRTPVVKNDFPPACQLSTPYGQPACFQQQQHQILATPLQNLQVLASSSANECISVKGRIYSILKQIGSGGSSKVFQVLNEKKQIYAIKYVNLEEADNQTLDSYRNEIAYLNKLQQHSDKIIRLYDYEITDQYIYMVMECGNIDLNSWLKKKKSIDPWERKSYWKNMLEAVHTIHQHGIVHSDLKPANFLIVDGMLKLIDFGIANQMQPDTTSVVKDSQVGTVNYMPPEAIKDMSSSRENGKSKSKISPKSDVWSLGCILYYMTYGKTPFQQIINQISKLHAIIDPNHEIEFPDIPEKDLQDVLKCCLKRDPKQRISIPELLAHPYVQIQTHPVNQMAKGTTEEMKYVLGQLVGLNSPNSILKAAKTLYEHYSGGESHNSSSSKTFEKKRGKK

One experiment addresses full length MPS1 (Homo sapiens (Human), UniProt P33981). Nature of the experiment: Measurement of Inhibition of MPS1 Kinase. Type of experiment: biochemical.
Conditions: not given
How it is done: Measurement of Inhibition of MPS1 Kinase
(5 μM), ATP (10 μM), either DMSO (1% v/v) or the test compound (in the range 0.25 nM-100 μM in 1% DMSO) and assay buffer (50 mM HEPES (pH 7.0), 0.02% NaN3, 0.01% BSA, 0.1 mM Orthovandate, […], 1 μM DTT, Roche protease inhibitor). The reaction was carried out for 60 min at room temperature and stopped by the addition of buffer (10 μl) containing 20 mM EDTA, 0.05% (v/v) Brij-35, in 0.1M HEPES-buffered saline (Free acid, Sigma, UK). The plate was read on a Caliper EZ reader II (Caliper Life Sciences).
The reader provides a Software package (‘Reviewer’) which converts the peak heights into % conversion by measuring both product and substrate peak and also allows selection of control well which represent 0% and 100% inhibition, respectively. The % inhibition of the compounds is calculated relative to the means of selected control wells. IC50s are determined by testing the compounds at a range of concentrations from 0.25 nM-100 μM. The % inhibitions at each concentration are then fitted to a 4 parameter logistic fit: y=(a+((b−a)/(1+((c/x^d)))) where a=asym min, b=asym max, c=IC50 and d=hill coefficient
On to `CCOc1cc(-c2nncn2C)ccc1Nc1ncc2cc(C)nc(N3CC(C)(C)C3)c2n1` [Example 29, 8-(3,3-dimethylazetidin-1-yl)-N-(2-ethoxy-4-(4-methyl-4H-1,2,4-triazol-3-yl)phenyl)-6-methylpyrido[3,4-d]pyrimidin-2-amine], for which the IC50 (as a rule, the concentration at which inhibition is half-maximal) turned out to be 2 nM.

Staying with this experiment, now noted: full length MPS1 12.5 nM or 3 nM, H236 peptide 5 μM, ATP 10 μM, 60 min at room temperature, Caliper EZ reader II; read-out: MPS1 IC50.
In the case of `CCOc1cc(-c2nncn2C)ccc1Nc1ncc2cc(C)nc(N3CCC(C)(C#N)CC3)c2n1` [Example 28, 1-(2-((2-ethoxy-4-(4-methyl-4H-1,2,4-triazol-3-yl)phenyl)amino)-6-methylpyrido[3,4-d]pyrimidin-8-yl)-4-methylpiperidine-4-carbonitrile], the IC50 turned out to be 2 nM.

On to `CCOc1cc(-c2nncn2C)ccc1Nc1ncc2cc(C)nc(N3CC(C)(OC)C3)c2n1` [Example 30, N-(2-ethoxy-4-(4-methyl-4H-1,2,4-triazol-3-yl)phenyl)-8-(3-methoxy-3-methylazetidin-1-yl)-6-methylpyrido[3,4-d]pyrimidin-2-amine], for which the IC50 stood at 2 nM.

With `CCOc1cc(-c2nncn2C)ccc1Nc1ncc2cc(C)nc(NCC3(O)CC3)c2n1` [Example 31, 1-(((2-((2-ethoxy-4-(4-methyl-4H-1,2,4-triazol-3-yl)phenyl)amino)-6-methylpyrido[3,4-d]pyrimidin-8-yl)amino)methyl)cyclopropanol], the IC50 stood at 8 nM.

On to `COc1cc(-c2cnc(C)n2C)ccc1Nc1ncc2cc(C)nc(N3CCC(C#N)CC3)c2n1` [Example 34, 1-(2-((4-(1,2-dimethyl-1H-imidazol-5-yl)-2-methoxyphenyl)amino)-6-methylpyrido[3,4-d]pyrimidin-8-yl)piperidine-4-carbonitrile], for which the IC50 amounted to 3 nM.

Take `CCOc1cc(-c2nncn2C)ccc1Nc1ncc2cc(C)nc(N3CC4(CCO4)C3)c2n1` [Example 36, N-(2-ethoxy-4-(4-methyl-4H-1,2,4-triazol-3-yl)phenyl)-6-methyl-8-(1-oxa-6-azaspiro[3.3]heptan-6-yl)pyrido[3,4-d]pyrimidin-2-amine]: the IC50 was determined as 2 nM.

As to `CCOc1cc(-c2nncn2C)ccc1Nc1ncc2cc(C)nc(N3CCC(C)(O)C3)c2n1` (stereo not drawn) [Example 37, 1-(2-((2-ethoxy-4-(4-methyl-4H-1,2,4-triazol-3-yl)phenyl)amino)-6-methylpyrido[3,4-d]pyrimidin-8-yl)-3-methylpyrrolidin-3-ol], the IC50 came to 3 nM.

With `CCOc1cc(-c2nncn2C)ccc1Nc1ncc2cc(C)nc(N3CCC(OC)C3)c2n1` (stereo not drawn) [Example 39, N-(2-ethoxy-4-(4-methyl-4H-1,2,4-triazol-3-yl)phenyl)-8-(3-methoxypyrrolidin-1-yl)-6-methylpyrido[3,4-d]pyrimidin-2-amine], the IC50 is 3 nM.

As to `CCOc1cc(-c2nncn2C)ccc1Nc1ncc2cc(C)nc(N3CC(C(F)(F)F)C3)c2n1` [Example 40, N-(2-ethoxy-4-(4-methyl-4H-1,2,4-triazol-3-yl)phenyl)-6-methyl-8-(3-(trifluoromethyl)azetidin-1-yl)pyrido[3,4-d]pyrimidin-2-amine], the IC50 was 5 nM.

As to `CCOc1cc(-c2nncn2C)ccc1Nc1ncc2cc(C)nc(N3CCC3(C)C)c2n1` [Example 42, 8-(2,2-dimethylazetidin-1-yl)-N-(2-ethoxy-4-(4-methyl-4H-1,2,4-triazol-3-yl)phenyl)-6-methylpyrido[3,4-d]pyrimidin-2-amine], the IC50 was determined as 10 nM.

Turning to `CCOc1cc(-c2nncn2C)ccc1Nc1ncc2cc(C)nc(N3CCC(OC)CC3)c2n1` [Example 46, N-(2-ethoxy-4-(4-methyl-4H-1,2,4-triazol-3-yl)phenyl)-8-(4-methoxypiperidin-1-yl)-6-methylpyrido[3,4-d]pyrimidin-2-amine], the IC50 is 3 nM.

Take `CCOc1cc(-c2nncn2C)ccc1Nc1ncc2cc(C)nc(N3CC4CC4C3)c2n1` (stereo not drawn) [Example 50, 8-(3-azabicyclo[3.1.0]hexan-3-yl)-N-(2-ethoxy-4-(4-methyl-4H-1,2,4-triazol-3-yl)phenyl)-6-methylpyrido[3,4-d]pyrimidin-2-amine]: the IC50 amounted to 2 nM.

For `CCOc1cc(-c2nncn2C)ccc1Nc1ncc2cc(C)nc(N3CC(N(C)C)C3)c2n1` [Example 51, 8-(3-(dimethylamino)azetidin-1-yl)-N-(2-ethoxy-4-(4-methyl-4H-1,2,4-triazol-3-yl)phenyl)-6-methylpyrido[3,4-d]pyrimidin-2-amine], the IC50 came to 6 nM.

`CCOc1cc(-c2nncn2C)ccc1Nc1ncc2cc(C)nc(N3CCC(O)CC3)c2n1` [Example 52, 1-(2-(2-ethoxy-4-(4-methyl-4H-1,2,4-triazol-3-yl)phenylamino)-6-methylpyrido[3,4-d]pyrimidin-8-yl)piperidin-4-ol]: the IC50 was 2 nM.

Consider `CCOc1cc(-c2nncn2C)ccc1Nc1ncc2cc(C)nc(N[C@H](C)C(C)(C)C)c2n1` [Example 53, (R)-N8-(3,3-dimethylbutan-2-yl)-N2-(2-ethoxy-4-(4-methyl-4H-1,2,4-triazol-3-yl)phenyl)-6-methylpyrido[3,4-d]pyrimidine-2,8-diamine], for which the IC50 came out at 5 nM.

For the compound `CCOc1cc(-c2nncn2C)ccc1Nc1ncc2cc(C)nc(N[C@@H](C)C(C)(C)C)c2n1` [Example 54, (S)-N8-(3,3-dimethylbutan-2-yl)-N2-(2-ethoxy-4-(4-methyl-4H-1,2,4-triazol-3-yl)phenyl)-6-methylpyrido[3,4-d]pyrimidine-2,8-diamine], the IC50 turned out to be 4 nM.

For `CCOc1cc(-c2nncn2C)ccc1Nc1ncc2cc(C)nc(N3CC4(CCC4)C3)c2n1` [Example 55, N-(2-ethoxy-4-(4-methyl-4H-1,2,4-triazol-3-yl)phenyl)-6-methyl-8-(2-azaspiro[3.3]heptan-2-yl)pyrido[3,4-d]pyrimidin-2-amine], the IC50 was 4 nM.

Consider `CCOc1cc(-c2nncn2C)ccc1Nc1ncc2cc(C)nc(N3CCCC3)c2n1` [Example 56, N-(2-ethoxy-4-(4-methyl-4H-1,2,4-triazol-3-yl)phenyl)-6-methyl-8-(pyrrolidin-1-yl)pyrido[3,4-d]pyrimidin-2-amine], for which the IC50 worked out at 6 nM.

With `CCOc1cc(-c2nncn2C)ccc1Nc1ncc2cc(C)nc(NCC3COC3)c2n1` [Example 57, N2-(2-ethoxy-4-(4-methyl-4H-1,2,4-triazol-3-yl)phenyl)-6-methyl-N8-(oxetan-3-ylmethyl)pyrido[3,4-d]pyrimidine-2,8-diamine], the concentration for half-maximal inhibition (IC50) was 3 nM.

Take `CCOc1cc(-c2nncn2C)ccc1Nc1ncc2cc(C)nc(NC3CN(C)C3)c2n1` [Example 58, N2-(2-ethoxy-4-(4-methyl-4H-1,2,4-triazol-3-yl)phenyl)-6-methyl-N8-(1-methylazetidin-3-yl)pyrido[3,4-d]pyrimidine-2,8-diamine]: the IC50 was 518 nM.

Turning to `CCOc1cc(-c2nncn2C)ccc1Nc1ncc2cc(C)nc(NCC3(OC)CCC3)c2n1` [Example 59, N2-(2-ethoxy-4-(4-methyl-4H-1,2,4-triazol-3-yl)phenyl)-N8-((1-methoxycyclobutyl)methyl)-6-methylpyrido[3,4-d]pyrimidine-2,8-diamine], the IC50 was 4 nM.

Take `CCOc1cc(-c2nncn2C)ccc1Nc1ncc2cc(C)nc(N3CC(CC)(OC)C3)c2n1` [Example 60, N-(2-ethoxy-4-(4-methyl-4H-1,2,4-triazol-3-yl)phenyl)-8-(3-ethyl-3-methoxyazetidin-1-yl)-6-methylpyrido[3,4-d]pyrimidin-2-amine]: the IC50 worked out at 3 nM.

Take `CCOc1cc(-c2nncn2C)ccc1Nc1ncc2cc(C)nc(N3CC(C)(OCC)C3)c2n1` [Example 61, 8-(3-ethoxy-3-methylazetidin-1-yl)-N-(2-ethoxy-4-(4-methyl-4H-1,2,4-triazol-3-yl)phenyl)-6-methylpyrido[3,4-d]pyrimidin-2-amine]: the IC50 is 4 nM.

`Cc1cc2cnc(Nc3ccc(-c4nncn4C)cc3OC(F)F)nc2c(N2CC(C)(C)C2)n1` [Example 62, N-(2-(difluoromethoxy)-4-(4-methyl-4H-1,2,4-triazol-3-yl)phenyl)-8-(3,3-dimethylazetidin-1-yl)-6-methylpyrido[3,4-d]pyrimidin-2-amine]: the IC50 amounted to 16 nM.
